{
  "source": "paper PMC8876616",
  "about": "“Drug Design, Synthesis and Biological Evaluation of Heterocyclic Molecules as Anti-Inflammatory Agents” (Molecules, 2022)",
  "key": {"[1]": {"target": "T1, human recombinant COX-2 (Homo sapiens, UniProt P35354)", "T1 construct": "purchased Cayman Chemicals, Ann Arbor, MI, USA", "T1 sequence (P35354 18-604)": "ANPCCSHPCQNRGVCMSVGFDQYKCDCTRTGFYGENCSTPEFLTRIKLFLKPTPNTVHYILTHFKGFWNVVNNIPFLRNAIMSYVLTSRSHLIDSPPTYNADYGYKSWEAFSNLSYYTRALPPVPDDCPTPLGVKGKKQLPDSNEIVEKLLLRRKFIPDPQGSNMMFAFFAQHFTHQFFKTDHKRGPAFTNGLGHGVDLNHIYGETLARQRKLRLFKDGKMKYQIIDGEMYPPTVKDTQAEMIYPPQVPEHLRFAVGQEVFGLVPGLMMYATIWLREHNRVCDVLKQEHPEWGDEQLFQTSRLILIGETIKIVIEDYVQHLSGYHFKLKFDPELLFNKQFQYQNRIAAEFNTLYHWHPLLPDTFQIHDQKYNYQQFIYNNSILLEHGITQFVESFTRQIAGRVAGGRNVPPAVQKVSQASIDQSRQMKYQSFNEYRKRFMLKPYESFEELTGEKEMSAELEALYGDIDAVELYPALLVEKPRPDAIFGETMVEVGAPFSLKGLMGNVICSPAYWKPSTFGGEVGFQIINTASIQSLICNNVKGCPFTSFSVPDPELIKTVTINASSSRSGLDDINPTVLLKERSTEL", "assay": "In vitro COX-2 colorimetric enzyme assay (Cayman kit, TMPD at 590 nm)", "type": "biochemical", "conditions": "for Selectivity (ratio of IC50 for COX-1 to COX-2): IC50 COX-1 divided by IC50 COX-2; for IC50: human recombinant COX-2; for COX-2 selectivity, in words: selectivity ratio compared with indomethacin / other derivatives; for COX-2 inhibition, in words: compared with indomethacin / other derivatives", "procedure": "(§1) The assay procedure was followed as per the manufacturer’s protocol with slight modifications. The screening kits consolidate ovine COX-1 as well as human recombinant COX-2 compounds to screen isozyme-specific inhibitors. The test investigates the peroxidase activity by projecting the presence of oxidized TMPD (N, N, N′, N′- tetramethyl-p-phenylenediamine) at 590 nm. The COX-2 selectivity was measured as a ratio of IC50 for COX-1 divided by COX-2 [15]."}, "[2]": {"target": "T2, ovine COX-1 (Ovis aries, UniProt P05979)", "T2 construct": "purchased Cayman Chemicals, Ann Arbor, MI, USA", "T2 sequence (P05979 25-600)": "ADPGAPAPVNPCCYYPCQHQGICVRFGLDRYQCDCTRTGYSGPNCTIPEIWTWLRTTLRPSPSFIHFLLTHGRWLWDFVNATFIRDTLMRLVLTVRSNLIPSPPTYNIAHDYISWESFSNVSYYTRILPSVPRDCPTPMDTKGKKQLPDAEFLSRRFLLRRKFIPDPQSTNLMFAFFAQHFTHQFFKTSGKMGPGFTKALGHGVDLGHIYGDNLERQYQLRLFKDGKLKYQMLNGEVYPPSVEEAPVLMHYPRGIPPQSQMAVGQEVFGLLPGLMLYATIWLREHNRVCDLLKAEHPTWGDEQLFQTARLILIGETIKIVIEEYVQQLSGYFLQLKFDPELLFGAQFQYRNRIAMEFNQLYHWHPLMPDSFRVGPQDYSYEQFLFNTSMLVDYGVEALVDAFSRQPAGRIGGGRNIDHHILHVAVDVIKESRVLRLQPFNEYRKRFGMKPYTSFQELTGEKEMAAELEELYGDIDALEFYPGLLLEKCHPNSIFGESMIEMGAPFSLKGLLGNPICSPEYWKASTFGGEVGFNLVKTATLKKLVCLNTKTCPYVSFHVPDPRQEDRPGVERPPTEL", "assay": "In vitro COX-1 colorimetric enzyme assay (Cayman kit, TMPD at 590 nm)", "type": "biochemical", "procedure": "as §1"}, "[3]": {"tested_on": "carrageenan-induced paw oedema", "assay": "Carrageenan-induced rat paw oedema", "type": "in vivo, Wistar rats", "conditions": "2.57 mg/kg oral, 1 h before carrageenan; paw volume after 5 h", "procedure": "All the procedures performed followed the Committee for Control and Supervision of Experiments on Animals (CPCSEA), the Ministry of Social Justice and Empowerment, the Government of India. The in vivo study was performed using Wistar rats (250-300 gm body weight) obtained from the Torrent Research Center, […]. Animals were divided into five groups containing six rats per group and housed under controlled conditions. The temperature and relative humidity of the animal house were kept at 23 ± 2 °C and 55 ± 5%, respectively. Animals were kept under a photo schedule of 12 h light and 12 h dark cycle and given access to food and purified water ad libitum. […] A freshly prepared carrageenan solution (1%w/v, 0.1 mL) was injected into the plantar side of each rat's right hind paw. […] The paw volume was measured using a plethysmometer using the mercury displacement method after 5 h of carrageenan injection."}, "[4]": {"tested_on": "gastric mucosa", "assay": "Effect on the gastric mucosa (ulcerogenic effect)", "type": "in vivo, Wistar rats", "conditions": "2.57 mg/kg oral, six hours after administration, rats", "procedure": "GI side effects were assessed six hours after an oral administration in each group. Animals were euthanized, and stomachs were expelled, opened along the more prominent bend and washed with saline to remove gastric contents. Each stomach was analysed by another researcher, blinded to the treatment groups. The stomach was visually examined for the presence of any lesions, hyperaemia (red tinge) or haemorrhagic spots for evaluation of the presence of ulceration."}},
  "note": "“And” between values parts separate entries of the source, which are not always exact repeats. Equal values may be shown once. “Also recorded” adds a separate entry of the source.",
  "data": [
    {"smiles": "COc1ccc2c(c1)c(CC(=O)Nc1ccccc1)c(C)n2C(=O)c1ccc(Cl)cc1", "note": "[Compound 3a, 2-(1(4-chlorobenzoyl),5-methoxy-2-methyl-1H-indol-3-yl)-N-phenylacetamide]", "values": [
      {"measurement": "Selectivity (ratio of IC50 for COX-1 to COX-2)", "setting": "[1]", "result": 2.04},
      {"measurement": "IC50", "setting": "[1]", "result": "2.97 ± 0.11", "unit": "µM"},
      {"measurement": "IC50", "setting": "[2]", "result": "6.04 ± 0.14", "unit": "µM"}
    ]},
    {"smiles": "COc1ccc2c(c1)c(CC(=O)Nc1ccccc1Cl)c(C)n2C(=O)c1ccc(Cl)cc1", "note": "[Compound 3b, 2-(1-(4-chlorobenzoyl),5-methoxy-2-methyl-1H-indol-3-yl)-N-(2-chlorophenyl)acetamide]", "values": [
      {"measurement": "Selectivity (ratio of IC50 for COX-1 to COX-2)", "setting": "[1]", "result": 1.41},
      {"measurement": "IC50", "setting": "[1]", "result": "3.28 ± 0.16", "unit": "µM"},
      {"measurement": "IC50", "setting": "[2]", "result": "4.61 ± 0.31", "unit": "µM"}
    ]},
    {"smiles": "COc1ccc2c(c1)c(CC(=O)Nc1ccc(F)c(Cl)c1)c(C)n2C(=O)c1ccc(Cl)cc1", "note": "[Compound 3c, N-(3-chloro-4-fluorophenyl)-2-(1-(4-chlorobenzoyl)-5-methoxy-2-methyl-1H-indol-3-yl)acetamide]", "values": [
      {"measurement": "Selectivity (ratio of IC50 for COX-1 to COX-2)", "setting": "[1]", "result": 0.76},
      {"measurement": "IC50", "setting": "[1]", "result": "1.39 ± 0.32", "unit": "µM"},
      {"measurement": "COX-2 selectivity, in words", "setting": "[1]", "result": "less than indomethacin"},
      {"measurement": "Anti-inflammatory activity (inhibition of paw oedema), in words", "setting": "[3]", "result": "comparable anti-inflammatory activity with the standard"},
      {"measurement": "IC50", "setting": "[2]", "result": "1.06 ± 0.1", "unit": "µM"}
    ]},
    {"smiles": "COc1ccc2c(c1)c(CC(=O)Nc1ccc(F)cc1)c(C)n2C(=O)c1ccc(Cl)cc1", "note": "[Compound 3d, 2-(1-(4-chlorobenzoyl)-5-methoxy-2-methyl-1H-indol-3-yl)-N-(4-fluorophenyl)acetamide]", "values": [
      {"measurement": "IC50", "setting": "[2]", "result": "5 ± 0.47", "unit": "µM"}
    ]},
    {"smiles": "COc1ccc2c(c1)c(CC(=O)Nc1ccc([N+](=O)[O-])cc1)c(C)n2C(=O)c1ccc(Cl)cc1", "note": "[Compound 3e, 2-(1-(4-chlorobenzoyl)-5-methoxy-2-methyl-1H-indol-3-yl)-N-(4-nitrophenyl)acetamide]", "values": [
      {"measurement": "Selectivity (ratio of IC50 for COX-1 to COX-2)", "setting": "[1]", "result": 3.32},
      {"measurement": "COX-2 inhibition, in words", "setting": "[1]", "result": "comparable COX-2 inhibition potential to indomethacin; also recorded: particularly significant activity against the COX-2 enzyme"},
      {"measurement": "IC50", "setting": "[1]", "result": "0.344 µM and 0.34 µM"},
      {"measurement": "COX-2 selectivity, in words", "setting": "[1]", "result": "highest selectivity ratio; also recorded: excellent selectivity ratio as compared with the standard"},
      {"measurement": "Anti-inflammatory activity (inhibition of paw oedema), in words", "setting": "[3]", "result": "comparable anti-inflammatory activity with the standard"},
      {"measurement": "IC50", "setting": "[2]", "result": "1.15 ± 0.3", "unit": "µM"},
      {"measurement": "Ulcerogenic effect (visual examination of stomach), in words", "setting": "[4]", "result": "devoid of GI side effects such as ulceration"}
    ]},
    {"smiles": "COc1ccc2c(c1)c(CC(=O)Nc1c(Cl)cccc1Cl)c(C)n2C(=O)c1ccc(Cl)cc1", "note": "[Compound 3g, 2-(1-(4-chlorobenzoyl)-5-methoxy-2-methyl-1H-indol-3-yl)-N-(2,6-dichlorophenyl)acetamide]", "values": [
      {"measurement": "Selectivity (ratio of IC50 for COX-1 to COX-2)", "setting": "[1]", "result": 1.42},
      {"measurement": "IC50", "setting": "[1]", "result": "2.91 ± 0.38", "unit": "µM"},
      {"measurement": "IC50", "setting": "[2]", "result": "4.14 ± 0.25", "unit": "µM"}
    ]},
    {"smiles": "COc1ccc2c(c1)c(CC(=O)NCc1ccccc1)c(C)n2C(=O)c1ccc(Cl)cc1", "note": "[Compound 3h, N-benzyl-2-(1-(4-chlorobenzoyl)-5-methoxy-2-methyl-1H-indol-3-yl)acetamide]", "values": [
      {"measurement": "Selectivity (ratio of IC50 for COX-1 to COX-2)", "setting": "[1]", "result": 1.06},
      {"measurement": "COX-2 inhibition, in words", "setting": "[1]", "result": "low inhibitory action against COX-2"},
      {"measurement": "IC50", "setting": "[1]", "result": "4.73 ± 0.15", "unit": "µM"},
      {"measurement": "IC50", "setting": "[2]", "result": "4.99 ± 0.11", "unit": "µM"}
    ]},
    {"smiles": "COc1ccc2c(c1)c(CC(=O)Nc1cccc(C)c1)c(C)n2C(=O)c1ccc(Cl)cc1", "note": "[Compound 3i, 2-(1-(4-chlorobenzoyl)-5-methoxy-2-methyl-1H-indol-3-yl)-N-m-tolylacetamide]", "values": [
      {"measurement": "Selectivity (ratio of IC50 for COX-1 to COX-2)", "setting": "[1]", "result": 1.12},
      {"measurement": "COX-2 inhibition, in words", "setting": "[1]", "result": "low inhibitory action against COX-2"},
      {"measurement": "IC50", "setting": "[1]", "result": "4.22 ± 0.23", "unit": "µM"},
      {"measurement": "IC50", "setting": "[2]", "result": "4.71 ± 0.22", "unit": "µM"}
    ]},
    {"smiles": "COc1ccc2c(c1)c(CC(=O)O)c(C)n2C(=O)c1ccc(Cl)cc1", "note": "[Indomethacin, 2-(1-(4-chlorobenzoyl)-5-methoxy-2-methyl-1-H-indol-3-yl)acetic acid]", "values": [
      {"measurement": "Anti-inflammatory activity (inhibition of paw oedema), in words", "setting": "[3]", "result": "significant inhibition of oedema formation"},
      {"measurement": "Ulcerogenic effect (visual examination of stomach), in words", "setting": "[4]", "result": "small lesions and red colouration; also recorded: small lesions and ulcers"}
    ]}
  ]
}
